23 compounds from ChEMBL document CHEMBL5236595, “JDQ443, a Structurally Novel, Pyrazole-Based, Covalent Inhibitor of KRASG12C for the Treatment of Solid Tumors” (J Med Chem, 2022) can be followed below.

By IC50 is commonly meant the concentration at which inhibition is half-maximal. The Cmax is the peak of the concentration-time curve. In general, solubility refers to the concentration that dissolves in the medium under given conditions. A low value points to a poorly soluble substance. As usually defined, the logD is the decadic logarithm of the distribution of all forms, ionised or not, between an organic phase and buffer at a given pH. One may read the Papp A→B as the apparent permeability from the apical to the basolateral side of a cell layer. In general, AUC refers to the area under the concentration-time curve, a measure of exposure. What is called half-life is the time needed for the level to fall by half in the phase considered. A high value points to slow loss.

One data set addresses GTPase KRas (Homo sapiens, UniProt P01116, G12C). Description: Inhibition of KRAS G12C mutant in human NCI-H358 cells assessed as reduction in ERK phosphorylation incubated for 6 hrs by MSD assay. In kind it is cell-based.
The test system of data set [1] is GTPase KRas (Homo sapiens), P01116 [G12C]. Description: Displacement of [acrylamide-2,3-3H2]-N-(3-fluoro-4-(2-methyl-3-(5-methyl-1H- indazole-4-yl)-1H-pyrrolo[ 2,3-b]pyridin-1-yl)-phenyl from KRAS G12C mutant (unknown origin) assessed as ratio of Kinact/Ki by competitive scintillation proximity assay. For orientation: Scintillation proximity formats need no separation of bound from free tracer.

The nature of data set [2]: Cmax in human MIA PaCa-2 cells xenografted mouse at 30 mg/kg, po. The class given is ADME, organism-based. The arrangement: dose 30 mg/kg, route po. The conditions noted are these: in vivo. (In general: Xenograft models place foreign cells or tissue in a host animal.)
Data set [3] can be described thus: Aqueous solubility of compound in pH 4. The settings on record: aqueous medium. In kind it is physicochemical.
A short description of data set [4]: Lipophilicity, logD of compound at pH 7.4. The class given is physicochemical. The settings on record: buffer.
The nature of data set [5]: Apparent permeability across apical to basolateral side in MDCK-MDR1 cells at 10 uM after 2 hrs by LC-MS/MS analysis. In kind it is ADME, cell-based, Canis lupus familiaris. The settings on record: dog.
Data set [6] can be described thus: AUC in human MIA PaCa-2 cells xenografted mouse at 30 mg/kg, po. In kind it is ADME, organism-based. The arrangement: dose 30 mg/kg, route po. The settings on record: in vivo.
A short description of data set [7]: Aqueous solubility of compound in pH 6.8. The class given is physicochemical. The settings on record: aqueous medium.
A short description of data set [8]: Cysteine reactivity in pH 7.4 phosphate buffer assessed as compound half life at 2 uM in presence of GSH.
For data set [9], the system named is GTPase KRas (Homo sapiens), P01116 [G12C]. Description: In vivo target occupancy at KRAS G12C mutant in human MIA PaCa-2 cells xenografted mouse assessed as decrease in free KRAS G12C level at 30 mg/kg, po after 24 hrs. The class given is functional, organism-based.
Data set [10] has the same test system. Description: In vivo target occupancy at KRAS G12C mutant in human MIA PaCa-2 cells xenografted mouse assessed as decrease in free KRAS G12C level at 30 mg/kg, po after 3 hrs. The class given is functional, organism-based.
The test system is the same in data set [11]. The data set is described as follows: In vivo target occupancy at KRAS G12C mutant in human MIA PaCa-2 cells xenografted mouse assessed as decrease in […] expression at 30 mg/kg, po after 3 hrs. In kind it is functional, organism-based.
For data set [12] the test system is unchanged. Description: In vivo target occupancy at KRAS G12C mutant in human MIA PaCa-2 cells xenografted mouse assessed as decrease in […] expression at 30 mg/kg, po after 24 hrs. The class given is functional, organism-based.
Data set [13] has the same test system. The data set is described as follows: In vivo target occupancy at KRAS G12C mutant in human MIA PaCa-2 cells xenografted mouse assessed as decrease in […] expression at 30 mg/kg, po after 6 hrs. The class given is functional, organism-based.
Data set [14] shares this test system. Description: In vivo target occupancy at KRAS G12C mutant in human MIA PaCa-2 cells xenografted mouse assessed as decrease in free KRAS G12C level at 30 mg/kg, po after 6 hrs. In kind it is functional, organism-based.
Data set [15] is described as follows: Half life in human MIA PaCa-2 cells xenografted mouse at 100 mg/kg, po. The conditions noted are these: in vivo. In kind it is ADME, organism-based.
Data set [16] relates to GTPase KRas (Homo sapiens), P01116 [G12C]. Description: In vivo target occupancy at KRAS G12C mutant in human MIA PaCa-2 cells xenografted mouse assessed as decrease in free KRAS G12C level at 100 mg/kg, po after 3 hrs. The class given is functional, organism-based.
The nature of data set [17]: Drug concentration in human MIA PaCa-2 cells xenografted mouse blood at 100 mg/kg, po after 40 mins. In kind it is ADME, organism-based. The conditions noted are these: whole blood, read-out: Drug uptake.
The subject of data set [18] is GTPase KRas (Homo sapiens), P01116 [G12C]. Description: In vivo target occupancy at KRAS G12C mutant in human MIA PaCa-2 cells xenografted mouse assessed as decrease in free KRAS G12C level at 100 mg/kg, po after 24 hrs. In kind it is functional, organism-based.

Values after ≈ are worked out from the molar mass of the structure shown.

For `C=CC(=O)N1CC2(CC(n3nc(-c4cccnc4)c(-c4c(Cl)ccc5[nH]ncc45)c3C)C2)C1`, at GTPase KRas, the IC50 was determined as 500 nM. Moreover, the Ratio in [1] stood at 1.3 mM⁻¹ s⁻¹.
For the compound `C=CC(=O)N1CC2(CC(n3nc(-c4ccc5c(cnn5CCN(C)C)c4)c(-c4c(Cl)c(C)cc5[nH]ncc45)c3C)C2)C1`, the Cmax in data set [2] stood at 300 nM. The compound further came in with a solubility in data set [3] of 850 µM (≈ 496 µg/mL). In addition, the IC50 on GTPase KRas stood at 30 nM. For the same compound, the logD in data set [4] is 3.7. Further, the Papp A→B at 2 h, 10 µM in [5] worked out at 0.9 ×10⁻⁶ cm/s. Besides, the Ratio in data set [1] turned out to be 150 mM⁻¹ s⁻¹. In data set [6], the AUC is 0.5 µM·h.
Take `C=CC(=O)N1CC2(CC(n3nc(-c4cccnc4)c(-c4c(Cl)c(C)cc5[nH]ncc45)c3C)C2)C1`: the IC50 on GTPase KRas was found to be 90 nM. For the same compound, the Ratio in data set [1] is 10 mM⁻¹ s⁻¹.
`C=CC(=O)N1CC2(CC(n3nc(C(C)C)c(-c4c(C)ccc5[nH]ncc45)c3C)C2)C1`: the IC50 at GTPase KRas was found to be 3900 nM. The Ratio in data set [1] amounted to 0.4 mM⁻¹ s⁻¹.
`C=CC(=O)N1CC2(CC(n3nc(-c4ccc5nnccc5c4)c(-c4c(Cl)c(C)cc5[nH]ncc45)c3C)C2)C1` showed a logD in [4] of 4.1. The Papp A→B at 2 h, 10 µM in data set [5] turned out to be 6.1 ×10⁻⁶ cm/s. In data set [7], this compound returned a solubility of 10 µM (≈ 5.24 µg/mL). The Ratio in [1] turned out to be 25 mM⁻¹ s⁻¹.
For the compound `C=CC(=O)N1CC2(CC(n3nc(-c4cccnc4)c(-c4c(Cl)c(C)cc5[nH]ncc45)c3CC#N)C2)C1`, the Ratio in data set [1] worked out at 0.2 mM⁻¹ s⁻¹.
Consider `C=CC(=O)N1CC2(CC(n3nc(-c4ccc5cn[nH]c5c4)c(-c4c(Cl)c(C)cc5[nH]ncc45)c3C)C2)C1`, for which the IC50 at GTPase KRas came out at 50 nM. Moreover, the Ratio in data set [1] came out at 19 mM⁻¹ s⁻¹.
On to `C=CC(=O)N1CC2(CC(n3nc(C4CCCCC4)c(-c4c(C)ccc5[nH]ncc45)c3C)C2)C1`, for which the Ratio in data set [1] was 0.3 mM⁻¹ s⁻¹.
Take `C=CC(=O)Nc1ccc(-n2nc(C(C)C)c(-c3c(C)ccc4[nH]ncc34)c2C)c(F)c1`: in [8], the T1/2 is 20 min. Besides, the IC50 at GTPase KRas stood at 500 nM. Further, the Ratio in data set [1] was 6 mM⁻¹ s⁻¹.
Take `C=CC(=O)N1CC2(CC(n3nc(-c4ccc5c(c4)ncn5C)c(-c4c(Cl)c(C)cc5[nH]ncc45)c3C)C2)C1`: at GTPase KRas, the IC50 came out at 140 nM. This compound displayed a logD in [4] of 3.9. The Papp A→B at 2 h, 10 µM in [5] worked out at 3.8 ×10⁻⁶ cm/s. In data set [7], this compound displayed a solubility of 40 µM (≈ 21 µg/mL). The Ratio in [1] was 24 mM⁻¹ s⁻¹.
For the compound `C=CC(=O)Nc1ccc(-n2nc(C)c(-c3c(C)ccc4[nH]ncc34)c2C)cc1`, the Ratio in data set [1] turned out to be 0.1 mM⁻¹ s⁻¹.
As to `C=CC(=O)N1CC2(CC(n3nc(-c4ccc5c(cnn5CCOC)c4)c(-c4c(Cl)c(C)cc5[nH]ncc45)c3C)C2)C1`, the Cmax in data set [2] is 600 nM. The Occ in data set [9], in data set [10], in data set [11] and in [12] was 100% in each case. At GTPase KRas, the IC50 is 8 nM. The logD in data set [4] was 4.5. In addition, in data set [7], the concentration in solution (solubility) was 10 µM (≈ 5.7 µg/mL). In addition, the Ratio in [1] was 190 mM⁻¹ s⁻¹. The compound further yielded an AUC in data set [6] of 1.5 µM·h.
Regarding `C=CC(=O)N1CC2(CC(n3nc(-c4ccc5[nH]ncc5c4)c(-c4c(Cl)c(C)cc5[nH]ncc45)c3C)C2)C1`, the IC50 on GTPase KRas turned out to be 20 nM. Further, in data set [4], the logD was 4.6. Also, the Papp A→B at 2 h, 10 µM in data set [5] worked out at 0.6 ×10⁻⁶ cm/s. In data set [7], this compound returned a solubility of 10 µM (≈ 5.12 µg/mL). The Ratio in [1] is 116 mM⁻¹ s⁻¹.
Consider `C=CC(=O)N1CC2(CC(n3nc(-c4ccc5nn(CCN6CCOCC6)cc5c4)c(-c4c(Cl)c(C)cc5[nH]ncc45)c3C)C2)C1`, for which the solubility in data set [3] was more than 1000 µM; in [7], 30 µM (≈ 18.8 µg/mL). Moreover, the IC50 on GTPase KRas turned out to be 10 nM. Further, in [4], the logD came to 4.2. Moreover, the Papp A→B at 2 h, 10 µM in data set [5] worked out at 2.8 ×10⁻⁶ cm/s. Besides, the Ratio in data set [1] was found to be 190 mM⁻¹ s⁻¹.
Consider `C=CC(=O)N1CC2(CC(n3nc(C4CCCCC4)c(-c4c(Cl)ccc5[nH]ncc45)c3C)C2)C1`, for which, at GTPase KRas, the IC50 was found to be 700 nM. Also, the Ratio in data set [1] was 0.9 mM⁻¹ s⁻¹.
Take `C=CC(=O)N1CC2(CC(n3nc(-c4cccnc4)c(-c4c(Cl)c(C)cc5[nH]ncc45)c3C(F)F)C2)C1`: the Ratio in data set [1] was found to be 3 mM⁻¹ s⁻¹.
In turn, `C=CC(=O)N1CC2(CC(n3nc(-c4ccc5nn(CCOC)cc5c4)c(-c4c(Cl)c(C)cc5[nH]ncc45)c3C)C2)C1` showed a Cmax in [2] of 4300 nM. Further, the Occ turned out to be 78% in [9], 59% in data set [12], 45% in data set [13] and 37% in [14]. Moreover, on GTPase KRas, the IC50 turned out to be 4 nM. Also, the logD in data set [4] worked out at 4.2. Further, the Papp A→B at 2 h, 10 µM in data set [5] worked out at 5.4 ×10⁻⁶ cm/s. This compound also showed a solubility in [7] of 30 µM (≈ 17.1 µg/mL). In [1], the Ratio was determined as 225 mM⁻¹ s⁻¹. The compound also had an AUC in data set [6] of 7.3 µM·h.
`C=CC(=O)Nc1ccc(-n2nc(C(C)C)c(-c3c(C)ccc4[nH]ncc34)c2C)c(C)c1`: the T1/2 in data set [8] is 107 min. In addition, at GTPase KRas, the IC50 came to 1500 nM. The Ratio in data set [1] is 1.7 mM⁻¹ s⁻¹.
Take `C=CC(=O)Nc1ccc(-n2nc(C)c(-c3c(C)ccc4[nH]ncc34)c2C)c(F)c1`: in [8], the T1/2 amounted to 30 min. Also, the Ratio in [1] was 0.5 mM⁻¹ s⁻¹.
For the compound `C=CC(=O)Nc1ccc(-n2nc(C(C)C)c(-c3c(C)ccc4[nH]ncc34)c2C)cc1`, the Ratio in [1] was determined as 0.6 mM⁻¹ s⁻¹.
On the same count and under the same terms, for `C=CC(=O)N1CC2(CC(n3nc(-c4ccccn4)c(-c4c(Cl)c(C)cc5[nH]ncc45)c3C)C2)C1` the value was 7 mM⁻¹ s⁻¹.
In turn, `C=CC(=O)N1CC2(CC(n3nc(-c4ccccc4)c(-c4c(Cl)c(C)cc5[nH]ncc45)c3C)C2)C1` had a half-life in data set [15] of 150 min. In addition, the IC50 on GTPase KRas was found to be 20 nM. The compound further showed a logD in data set [4] of 4.9. Moreover, the Occ turned out to be 20% in data set [16] and 40% in data set [18]. The compound further gave a solubility in data set [7] of 10 µM (≈ 4.72 µg/mL). In addition, the concentration at 40 min in data set [17] was found to be 4000 nM. Moreover, in data set [1], the Ratio was 60 mM⁻¹ s⁻¹.
For the compound `C=CC(=O)Nc1ccc(-c2nn(C(C)C)c(-c3c(C)ccc4[nH]ncc34)c2C)c(F)c1`, the T1/2 in [8] came out at 57 min. Moreover, the Ratio in data set [1] came out at 0.2 mM⁻¹ s⁻¹.
